Drawing on patent US5354862A, “Preparation and the use of halopropargylated cyclic quaternary ammonium compounds as antimicrobial agents” (Rohm and Haas Company, priority 1993, dated 1994), this text covers MIC for 17 compounds.

Where two headings read alike, the source gives them in different places.

Holding throughout (experiment): Broth two-fold serial dilution MIC test
For test [1], the system named is Aspergillus niger. Type of test: cell-based, Aspergillus niger (ATCC 6275). To be noted: Anig, TSB media. From the text:
(§1) A minimum inhibitory concentration (MIC) value is obtained using a broth, two-fold serial dilution test performed as follows: A stock solution or dispersion of the test compound, typically at a concentration of 1%, is made in a 5:3:2 solvent solution of acetone. methanol, and water. A volume of the stock solution is dispensed into culture media to give an initial starting test concentration of 500 ppm compound.
(§2) When the test is ready to be done, each vessel in the dilution series, except the first vessel, contains an equal volume of compound free broth. The first vessel contains twice the volume of broth with the starting concentration of test compound. One half of the broth from the first vessel is transferred to the second vessel- After being mixed, one half the resulting volume is removed from the second vessel and transferred to the third vessel. The entire cycle is repeated sufficiently to give a series of concentrations amounting to 500, 250, 125, 63, 31, 16, 8, and 4, 2, 1, 0.5, 0.25 ppm respectively.
(§3) Each vessel is then inoculated with a cell suspension of the appropriate test organism. Bacteria are grown in broth, fungi on agar slants for a time and at a temperature appropriate to the species being tested, and algae are a mixture of green algae and blue-green bacteria grown in a nutrient media. At the end of the growth period, in the case of bacteria, the broth is vortexed to disperse the cells.
(§4) In the case of fungi, the spores are harvested by pipetting water onto the slant and dislodging the spores with a sterile loop. The cell/spore suspension is standardized by controlling incubation time, temperature, and the volume of the diluent. The suspension is then used to inoculate the vessels containing the broth compound.
(§5) The vessels are then incubated at the appropriate temperature. After the incubation, the vessels are examined for growth/no growth. The minimum inhibitory concentration (MIC) is defined as the lowest concentration of compound that results in complete inhibition of growth of the test organism.
4. Aspergillus niger 6275 Anig

Test [2] relates to Staphylococcus aureus. In kind it is cell-based, Staphylococcus aureus (ATCC 6538). The following applies: Saur.
From the text: as §1, §2, §3, §4, §5
2. Staphylococcus aureus

Test [3] deals with Escherichia coli. In kind it is cell-based, Escherichia coli (ATCC 11229). The following applies: Ecol.
From the text: as §1, §2, §3, §4, §5

The test system of test [4] is Pseudomonas aeruginosa. Type of test: cell-based, Pseudomonas aeruginosa (ATCC 15442). The following applies: Psae.
From the text: as §1, §2, §3, §4, §5
1. Pseudomonas aeruginosa

Setting [5] is: Aspergillus niger, Table 2, read-out: MIC.
Setting [6] is: Staphylococcus aureus, Table 2, M9G media, read-out: MIC.
The mark [7] stands for this setting: Staphylococcus aureus, Table 2, TSB media, read-out: MIC.
The mark [8] stands for this setting: Escherichia coli, Table 2, M9G media, read-out: MIC.
Setting [9] is: Escherichia coli, Table 2, TSB media, read-out: MIC.
Setting [10] is: Pseudomonas aeruginosa, Table 2, M9G media, read-out: MIC.
Where [11] appears, read: Pseudomonas aeruginosa, Table 2, TSB media, read-out: MIC.

As for `CCCCCCCCCCCCCC[N+]1(CC#CI)CCSCC1` [Compound 57, 4-(tetradecyl)-4-(3-iodopropargyl)-thiomorpholinium benzenesulfonate], the MIC in test [1] (setting [5]) was 0.5 µg/mL; in test [2] (setting [6]), under 0.25 µg/mL; in test [2] (setting [7]), under 0.25 µg/mL; in test [3] (setting [8]), under 0.25 µg/mL; in test [3] (setting [9]) it was 0.5 µg/mL; in test [4] (setting [10]), 0.5 µg/mL. Further, in test [4] (setting [11]), the MIC was 4 µg/mL.
As for `CCCCCCCCCCCCCC[N+]1(CC#CI)CCNC1.O=S(=O)([O-])c1ccccc1` (stereo not shown) [Compound 58, 3-(tetradecyt)-3-(3-iodopropargyl)-imidazolidinium benzenesulfonate], the MIC amounted to 8 ppm in test [1] (Table 2); 0.5 ppm in test [2] (Table 2, M9G media); 4 ppm in test [2] (Table 2, TSB media); 4 ppm in test [3] (Table 2, M9G media); 8 ppm in test [3] (Table 2, TSB media); 125 ppm in test [4] (Table 2, M9G media). Further, the MIC in test [4] (Table 2, TSB media) was over 500 ppm.
For `CCCCCCCCCCCC[N+]1(CC#CI)CCCC1` [Compound 37, 1-dodecyl-1-(3-iodopropargyl)-pyrrolidinium methanesulfonate], the MIC in test [1] (Table 2) is given as 0.25 ppm; in test [2] (Table 2, M9G media), 0.5 ppm; in test [2] (Table 2, TSB media), 0.5 ppm; in test [3] (Table 2, M9G media), 2 ppm; in test [3] (Table 2, TSB media), 16 ppm; in test [4] (Table 2, M9G media), 63 ppm. Moreover, the MIC in test [4] (Table 2, TSB media) is listed as 125 ppm.
Take `CCCCCC[N+]1(CC#CI)CCCC1` [Compound 14, 1-hexyl-1-(3-iodopropargyl)-pyrrolidinium 4-methylbenzenesulfonate]: the MIC stood at 250 µg/mL in test [1] (setting [5]); 16 µg/mL in test [2] (setting [6]); 16 µg/mL in test [2] (setting [7]); 250 µg/mL in test [3] (setting [8]); 125 µg/mL in test [3] (setting [9]); 500 µg/mL in test [4] (setting [10]). Also, the MIC in test [4] (setting [11]) is 500 µg/mL.
As to `CCCCCCCCCCOC(=O)C[N+]1(CC#CI)CCCC1` [Compound 70, 1-(decyloxycarbonyl)methyl-1-(3-iodopropargyt)-pyrrolidinium benzenesulfonate], the MIC in test [1] (Table 2) is 32 ppm; in test [2] (Table 2, M9G media) it was 1 ppm; in test [2] (Table 2, TSB media), 2 ppm; in test [3] (Table 2, M9G media), 2 ppm; in test [3] (Table 2, TSB media), 8 ppm; in test [4] (Table 2, M9G media), 125 ppm. The compound further came in with an MIC in test [4] (Table 2, TSB media) of 250 ppm.
`CCCCCCCCCCCCCCCC[N+]1(CC#CI)CCOCC1` [Compound 50, 4-hexadecyl-4-(3-iodopropargyl)-morpholinium benzenesulfonate]: the MIC is 0.5 ppm in test [1] (Table 2); under 0.25 ppm in test [2] (Table 2, M9G media); 0.5 ppm in test [2] (Table 2, TSB media); 1 ppm in test [3] (Table 2, M9G media); 1 ppm in test [3] (Table 2, TSB media); 8 ppm in test [4] (Table 2, M9G media). This compound registered an MIC in test [4] (Table 2, TSB media) of 8 ppm.
On to `CCCCCCCCCCCCCCCC[N+]1(CC#CI)CCCCC1` [Compound 26, 1-(hexadecyl)-1-(3-iodopropargyl)-piperidinium 4-methylbenzenesulfonate], for which the MIC in test [1] (setting [5]) came out at 16 µg/mL; in test [2] (Table 2, M9G media), 0.25 ppm; in test [2] (Table 2, TSB media) it was 0.25 ppm; in test [3] (Table 2, M9G media) it was 4 ppm; in test [3] (Table 2, TSB media), 4 ppm; in test [4] (Table 2, M9G media), 4 ppm. In test [4] (Table 2, TSB media), this compound returned an MIC of 16 ppm.
Consider `CCCCCCCCCCCCCC[N+]1(CC#CI)CCCC1` [Compound 87, 1.-tetradecyl-1-(3-iodopropargyl)-pyrrolidinium n-butylsulfonate], for which the MIC in test [1] (Table 2) is reported as 4 ppm; in test [2] (Table 2, M9G media), 0.25 ppm; in test [2] (Table 2, TSB media) it was 0.25 ppm; in test [3] (Table 2, M9G media) it was 2 ppm; in test [3] (Table 2, TSB media), 4 ppm; in test [4] (Table 2, M9G media), 16 ppm. For the same compound, the MIC in test [4] (Table 2, TSB media) is 64 ppm.
In the case of `CCCCCCOC(=O)CCCCC[N+]1(CC#CI)CCCC1` [Compound 84, 1-[5-(hexyloxycarbonyl)]pentyl-1-(3-iodopropargyl)-pyrrolidinium methanesulfonate], the MIC in test [1] (Table 2) is given as 32 ppm; in test [2] (Table 2, M9G media) it was 2 ppm; in test [2] (Table 2, TSB media), 8 ppm; in test [3] (Table 2, M9G media), 16 ppm; in test [3] (Table 2, TSB media), 32 ppm; in test [4] (Table 2, M9G media), over 500 ppm. The MIC in test [4] (Table 2, TSB media) is over 500 ppm.
Consider `CCCCCCCCCCCCCC[N+]1(CC#CI)CCCCC1C` (stereo not shown) [Compound 51, 1-(tetradecyl)-1-(3-iodopropargyl)-2-methylpiperidinium benzenesulfonate], for which the MIC is 0.5 µg/mL in test [1] (setting [5]); under 0.25 ppm in test [2] (Table 2, M9G media); under 0.25 ppm in test [2] (Table 2, TSB media); 4 µg/mL in test [3] (setting [8]); 2 ppm in test [3] (Table 2, TSB media); 16 ppm in test [4] (Table 2, M9G media). Besides, in test [4] (Table 2, TSB media), the MIC is 16 ppm.
Turning to `CCCCCCCCCCCCCCCC[N+]1(CC#CI)CCCC1` [Compound 7, 1-hexadecyl-1-(3-iodopropargyl)-pyrrolidinium 4-methylbenzenesulfonate], the MIC in test [1] (Table 2) is 1 ppm; in test [2] (setting [6]) it was under 0.25 µg/mL; in test [2] (setting [7]) it was under 0.25 µg/mL; in test [3] (setting [8]) it was 4 µg/mL; in test [3] (Table 2, TSB media), 2 ppm; in test [4] (Table 2, M9G media) it was 4 ppm. The compound further gave an MIC in test [4] (Table 2, TSB media) of 8 ppm.
For the compound `C[N+]1(CC#CI)CCCCC1` [Compound 17, 1-Methyl-1-(3-Iodopropargyl)-Piperidinium 4-Methylbenzenesulfonate], the MIC in test [1] (setting [5]) is 125 µg/mL; in test [1] (Aspergillus niger, Table 3 comparison, read-out: MIC), 125 µg/mL; in test [2] (setting [6]) it was 32 µg/mL; in test [2] (setting [7]), 32 µg/mL; in test [2] (Staphylococcus aureus, Table 3 comparison, M9G media, read-out: MIC), 32 µg/mL; in test [2] (Staphylococcus aureus, Table 3 comparison, TSB media, read-out: MIC) it was 32 µg/mL. Also, the MIC was 250 µg/mL in test [3] (setting [9]); 250 µg/mL in test [3] (Escherichia coli, Table 3 comparison, TSB media, read-out: MIC); 250 µg/mL in test [4] (setting [10]); 125 µg/mL in test [4] (setting [11]); 250 µg/mL in test [4] (Pseudomonas aeruginosa, Table 3 comparison, M9G media, read-out: MIC); 125 µg/mL in test [4] (Pseudomonas aeruginosa, Table 3 comparison, TSB media, read-out: MIC).
Regarding `CCCCCCCCCCC[N+]1(CC#CI)CCCC1` [Compound 15, 1-undecyl-1-(3-iodopropargyl)-pyrrolidinium 4-methylbenzenesulfonate], the MIC came to 16 µg/mL in test [1] (setting [5]); 0.25 µg/mL in test [2] (setting [6]); 0.25 µg/mL in test [2] (setting [7]); 1 µg/mL in test [3] (setting [8]); 2 µg/mL in test [3] (setting [9]); 32 µg/mL in test [4] (setting [10]). The MIC in test [4] (setting [11]) amounted to 32 µg/mL.
As for `CCCCCCCCCCCCCCCC[N+]1(CC#CI)CCCCCC1` [Compound 44, 1-hexadecyl-1-(3-iodopropargyl)-hexamethyleneiminium 4-methylbenzenesulfonate], the MIC in test [1] (setting [5]) was 8 µg/mL; in test [2] (setting [6]), 8 µg/mL; in test [2] (setting [7]), 4 µg/mL; in test [3] (setting [8]), 8 µg/mL; in test [3] (setting [9]), 16 µg/mL; in test [4] (setting [10]) it was 8 µg/mL. Moreover, the MIC in test [4] (setting [11]) is 8 µg/mL.
Turning to `CCCCCCOC(=O)CCCCC[N+]1(CC#CI)CCCC1` [Compound 82, 1-[5-(hexyloxycarbonyl)]pentyl-1-(3-iodopropargyl)-pyrrolidinium 4-methylbenzenesulfonate], the MIC in test [1] (Table 2) was 125 ppm; in test [2] (setting [6]) it was 2 µg/mL; in test [2] (setting [7]), 8 µg/mL; in test [3] (setting [8]) it was 32 µg/mL; in test [3] (setting [9]), 64 µg/mL; in test [4] (setting [10]) it was over 500 µg/mL. Moreover, the MIC in test [4] (setting [11]) was over 500 µg/mL.
For `CCCCCCCC[N+]1(CC#CI)CCCC1` [Compound 12, 1-octyl-1-(3-iodopropargyl)-pyrrolidinium 4-methylbenzenesulfonate], the MIC in test [1] (setting [5]) was 16 µg/mL; in test [2] (setting [6]), 2 µg/mL; in test [2] (setting [7]), 16 µg/mL; in test [3] (setting [8]), 32 µg/mL; in test [3] (setting [9]) it was 63 µg/mL; in test [4] (setting [10]), 500 µg/mL. For the same compound, the MIC in test [4] (setting [11]) is over 500 µg/mL.
On to `CCCCCCCCCCCCCCCC[N+]1(CC#CI)CCOCC1` [Compound 40, 1-hexadecyl-1-(3-iodopropargyt)-morpholinium methanesulfonate], for which the MIC was under 0.25 ppm in test [1] (Table 2); under 0.25 µg/mL in test [2] (setting [6]); 0.5 µg/mL in test [2] (setting [7]); 0.5 µg/mL in test [3] (setting [8]); under 0.25 ppm in test [3] (Table 2, TSB media); 4 µg/mL in test [4] (setting [10]). In addition, in test [4] (setting [11]), the MIC came out at 4 µg/mL.
